The record followed here is ChEMBL document CHEMBL1139473, “Design, synthesis, and biological evaluation of dual binding site acetylcholinesterase inhibitors: new disease-modifying agents for Alzheimer's disease” (J Med Chem, 2005).

One series addresses Cholinesterase (Homo sapiens, UniProt P06276).
Series [1] concerns the target T1, Acetylcholinesterase (Bos taurus, UniProt P23795).
T1 sequence (P23795 whole entry): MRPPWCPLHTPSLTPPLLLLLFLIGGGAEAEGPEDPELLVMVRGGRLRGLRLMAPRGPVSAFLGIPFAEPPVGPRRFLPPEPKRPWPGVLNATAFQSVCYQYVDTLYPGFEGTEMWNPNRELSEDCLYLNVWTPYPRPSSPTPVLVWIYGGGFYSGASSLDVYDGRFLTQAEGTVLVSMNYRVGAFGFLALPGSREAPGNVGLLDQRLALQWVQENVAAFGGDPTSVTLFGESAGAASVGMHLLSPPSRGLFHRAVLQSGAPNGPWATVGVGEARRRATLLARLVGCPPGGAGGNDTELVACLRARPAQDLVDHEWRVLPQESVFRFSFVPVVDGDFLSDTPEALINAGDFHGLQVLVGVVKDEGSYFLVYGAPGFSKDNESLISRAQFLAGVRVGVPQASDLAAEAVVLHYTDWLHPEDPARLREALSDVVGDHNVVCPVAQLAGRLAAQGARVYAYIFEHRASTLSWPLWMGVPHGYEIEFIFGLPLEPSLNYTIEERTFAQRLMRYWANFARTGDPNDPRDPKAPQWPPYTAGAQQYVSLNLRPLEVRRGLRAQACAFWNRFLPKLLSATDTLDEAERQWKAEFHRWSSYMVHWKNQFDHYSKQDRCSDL
As to the kind of experiment: biochemical.
Description: Inhibition of AchE in bovine erythrocytes

Series [2] addresses T2, Acetylcholinesterase (Homo sapiens, UniProt P22303).
Description: Inhibition of human brain AchE
For series [3], the target named is T2, Acetylcholinesterase. This is another data set of the same source.
In series [4] the target is Cholinesterases; ACHE & BCHE (Homo sapiens) (UniProt P06276+P22303). As to the kind of experiment: Selectivity for human BChE over human AChE. It is filed as protein assay.
Cholinesterases; ACHE & BCHE (Homo sapiens), sequence (P06276 whole entry, looked up): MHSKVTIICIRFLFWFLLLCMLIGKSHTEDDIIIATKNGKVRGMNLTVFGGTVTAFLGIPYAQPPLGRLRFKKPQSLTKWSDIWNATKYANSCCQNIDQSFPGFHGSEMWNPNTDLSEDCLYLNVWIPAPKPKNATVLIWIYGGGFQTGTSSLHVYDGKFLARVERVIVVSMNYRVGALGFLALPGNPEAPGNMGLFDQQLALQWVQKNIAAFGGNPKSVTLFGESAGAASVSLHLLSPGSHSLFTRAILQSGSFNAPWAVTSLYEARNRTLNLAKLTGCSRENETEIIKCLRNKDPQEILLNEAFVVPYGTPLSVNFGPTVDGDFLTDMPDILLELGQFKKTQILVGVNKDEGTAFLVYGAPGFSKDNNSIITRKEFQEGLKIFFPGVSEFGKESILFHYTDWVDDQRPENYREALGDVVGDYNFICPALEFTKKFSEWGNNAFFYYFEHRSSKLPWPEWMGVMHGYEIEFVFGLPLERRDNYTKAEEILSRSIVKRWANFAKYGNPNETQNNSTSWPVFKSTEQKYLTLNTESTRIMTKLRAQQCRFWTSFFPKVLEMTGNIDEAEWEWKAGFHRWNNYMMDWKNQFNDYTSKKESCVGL
Cholinesterases; ACHE & BCHE (Homo sapiens), sequence (P22303 whole entry, looked up): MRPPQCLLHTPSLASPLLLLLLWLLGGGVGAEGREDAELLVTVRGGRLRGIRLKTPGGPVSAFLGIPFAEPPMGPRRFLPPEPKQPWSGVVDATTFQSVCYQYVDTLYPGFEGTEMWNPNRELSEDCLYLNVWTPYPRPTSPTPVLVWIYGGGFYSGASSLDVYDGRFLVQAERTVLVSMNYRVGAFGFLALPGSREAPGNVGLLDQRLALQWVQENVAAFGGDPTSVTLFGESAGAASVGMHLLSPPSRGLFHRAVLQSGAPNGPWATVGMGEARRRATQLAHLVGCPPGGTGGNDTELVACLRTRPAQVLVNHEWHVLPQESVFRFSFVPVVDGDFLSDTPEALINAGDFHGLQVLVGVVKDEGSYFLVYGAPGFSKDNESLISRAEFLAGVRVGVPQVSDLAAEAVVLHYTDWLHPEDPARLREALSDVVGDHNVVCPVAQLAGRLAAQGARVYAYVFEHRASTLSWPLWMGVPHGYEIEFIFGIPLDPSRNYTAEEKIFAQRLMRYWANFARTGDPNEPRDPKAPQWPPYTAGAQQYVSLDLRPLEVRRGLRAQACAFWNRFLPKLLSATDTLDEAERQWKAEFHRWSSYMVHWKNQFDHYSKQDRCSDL
Series [5] addresses T2, Acetylcholinesterase. As to the kind of experiment: Inhibition of human AChE-induced beta amyloid peptide(1-40) aggregation at 100 uM by thioflavin T-based fluorometric assay. It is filed as functional.
The next series deals with SH-SY5Y. As to the kind of experiment: Cytotoxicity against human SHSY5Y cells at 10 uM after 48 hrs. It is filed as cell-based.

Cholinesterase, sequence (P06276 whole entry): as the sequence (P06276 whole entry, looked up) above
T2 sequence (P22303 whole entry): as the sequence (P22303 whole entry, looked up) above

What is called IC50 is the point on the concentration scale where inhibition reaches its midpoint. Higher therefore signals weaker potency in that assay. Consider `O=C(CCOc1c[nH]c2ccccc12)NCCCCCNc1c2c(nc3cc(Cl)ccc13)CCCC2`, for which the IC50 at Cholinesterase was found to be 136 nM; against Acetylcholinesterase [1], 1.5 nM.

As to `Cn1cc(C(=O)NCCCCCCCNc2c3c(nc4cc(Cl)ccc24)CCCC3)c2ccccc21`, the IC50 was found to be 206 nM at Cholinesterase and 10.9 nM at Acetylcholinesterase [1].

One may read the Ki as a measure of affinity in units of concentration, obtained from inhibition or displacement. A low value points to higher affinity. One may read the inhibition as the share of the control response that was lost under treatment. The low end stands for little suppression, the high end for strong suppression. As to `O=C(Cc1c[nH]c2ccccc12)NCCCCCCCNc1c2c(nc3cc(Cl)ccc13)CCCC2`, the IC50 against Acetylcholinesterase [2] stood at 0.12 nM; at Acetylcholinesterase [3] it was 7000 nM; against Cholinesterase, 11.7 nM; on Acetylcholinesterase [1], 0.2 nM. On Acetylcholinesterase [2], this compound registered a Ki of 0.015 nM. The Ratio IC50 in series [4] is 0.01. This compound gave an inhibition against Acetylcholinesterase [5] of 84%.

For the compound `O=C(CCc1c[nH]c2ccccc12)NCCCCCCCCCc1c2c(nc3cc(Cl)ccc13)CCCC2`, at Cholinesterase, the midpoint of inhibition, the IC50, lay at 9.6 nM.

At Cholinesterase, `O=C(CCc1c[nH]c2ccccc12)NCCCCCNc1c2c(nc3cc(Cl)ccc13)CCCC2` came in with an IC50 of 16 nM.

Regarding `O=C(CCOc1c[nH]c2ccccc12)NCCCCCCCNc1c2c(nc3cc(Cl)ccc13)CCCC2`, the IC50 was 59 nM at Cholinesterase and 3 nM against Acetylcholinesterase [1].

At Acetylcholinesterase [2], `O=C(CCc1c[nH]c2ccccc12)NCCCCCCCNc1c2c(nc3cc(Cl)ccc13)CCCC2` yielded an IC50 of 0.02 nM and an inhibitory constant (Ki) of 0.009 nM. Also, the outcome in the series with SH-SY5Y was Active. The compound further displayed an IC50 against Acetylcholinesterase [3] of 6000 nM. Also, in series [4], the Ratio IC50 came to 0.22. The compound also yielded an inhibition at Acetylcholinesterase [5] of 96%.

With `O=C(CCc1c[nH]c2ccccc12)NCCCCCCNc1c2c(nc3cc(Cl)ccc13)CCCC2`, the IC50 is 0.07 nM against Acetylcholinesterase [2] and 2000 nM at Acetylcholinesterase [3]. The Ki at Acetylcholinesterase [2] was 0.014 nM. Moreover, the Ratio IC50 in series [4] amounted to 0.02. The compound also came in with an inhibition at Acetylcholinesterase [5] of 98%.

Regarding `CN(CCCNC(=O)CCc1c[nH]c2ccccc12)CCCNc1c2c(nc3cc(Cl)ccc13)CCCC2`, the result with SH-SY5Y was Active. The compound also came in with an IC50 on Cholinesterase of 21.4 nM.

Regarding `N#Cc1ccc2[nH]cc(CCC(=O)NCCCCCCNc3c4c(nc5cc(Cl)ccc35)CCCC4)c2c1`, the IC50 was 11.7 nM on Cholinesterase and 0.7 nM against Acetylcholinesterase [1].

The compound `O=C(CCCc1c[nH]c2ccccc12)NCCCCCCNc1c2c(nc3cc(Cl)ccc13)CCCC2` displayed a 50% inhibitory concentration (IC50) against Acetylcholinesterase [1] of 0.5 nM.

Take `O=C(CCCc1c[nH]c2ccccc12)NCCCCCNc1c2c(nc3cc(Cl)ccc13)CCCC2`: the IC50 at Acetylcholinesterase [2] is 0.13 nM; at Acetylcholinesterase [3] it was 2000 nM; against Cholinesterase it was 3.2 nM; at Acetylcholinesterase [1], 0.3 nM. The compound also displayed a Ki on Acetylcholinesterase [2] of 0.0017 nM. Besides, the Ratio IC50 in series [4] came to 0.04. At Acetylcholinesterase [5], this compound yielded an inhibition of 99%.

As for `O=C(CCOc1c[nH]c2ccccc12)NCCCCCCNc1c2c(nc3cc(Cl)ccc13)CCCC2`, the IC50 against Cholinesterase stood at 60 nM; on Acetylcholinesterase [1], 0.7 nM.

For the compound `O=C(CCc1c[nH]c2ccccc12)NCCCCCCCCCCNc1c2c(nc3ccccc13)CCCC2`, the IC50 worked out at 54 nM at Cholinesterase and 21.9 nM at Acetylcholinesterase [1].

As for `O=C(/C=C/c1c[nH]c2ccccc12)NCCCCCCNc1c2c(nc3cc(Cl)ccc13)CCCC2`, the figures for the IC50 against Cholinesterase and against Acetylcholinesterase [1] were 77 nM and 18 nM, respectively.

As to `O=C(Cc1c[nH]c2ccc(Br)cc12)NCCCCCCCNc1c2c(nc3cc(Cl)ccc13)CCCC2`, the IC50 amounted to 0.23 nM against Acetylcholinesterase [2], 15000 nM against Acetylcholinesterase [3] and 0.6 nM against Acetylcholinesterase [1]. At Acetylcholinesterase [2], the Ki worked out at 0.02 nM. Moreover, the Ratio IC50 in series [4] was determined as 0.14. On Acetylcholinesterase [5], the inhibition is 82%.

As to `O=C(CCc1c[nH]c2ccccc12)NCCCCCCCCNc1c2c(nc3cc(Cl)ccc13)CCCC2`, the outcome in the series on SH-SY5Y was Active.
